Blank lines part the entries; values can stand above or below the compound they belong to.
Experiments:
[1] = test system: MDA-MB-231; assay: Antiproliferative activity against human MDA-MB-231 cells assessed as reduction in cell viability; assay type: functional, cell-based
[2] = test system: MCF7; assay: Antiproliferative activity against human MCF7 cells assessed as reduction in cell viability; assay type: functional, cell-based
[3] = test system: SNB-19; assay: Cytotoxicity against human SNB-19 cells assessed as reduction in cell growth incubated for 24 hrs by MTT assay; assay type: functional, cell-based; details: SNB-19, 24 h
[4] = test system: T47D; assay: Cytotoxicity against human T47D cells assessed as reduction in cell growth incubated for 24 hrs by MTT assay; assay type: functional, cell-based
[5] = test system: MCF7; assay: Cytotoxicity against human MCF7 cells assessed as reduction in cell growth incubated for 24 hrs by MTT assay; assay type: functional, cell-based; details: MCF7, 24 h
[6] = test system: HCT-116; assay: Cytotoxicity against human HCT-116 cells assessed as reduction in cell viability measured after 48 hrs by MTT assay; assay type: functional, cell-based; details: HCT-116, 48 h
[7] = test system: SCC-25; assay: Antiproliferative activity against human SCC-25 cells; assay type: functional, cell-based
[8] = test system: Fibroblast; assay: Antiproliferative activity against human Fibroblast cells; assay type: functional, cell-based
[9] = test system: MCF7; assay: Anticancer activity against human MCF7 cells; assay type: functional, cell-based
[10] = test system: HeLa; assay: Cytotoxicity against human HeLa cells assessed as reduction in cell viability after 72 hrs by MTT assay; assay type: functional, cell-based
[11] = test system: CCRF-CEM; assay: Antiproliferative activity against human CCRF-CEM cells; assay type: functional, cell-based
[12] = test system: SGC-7901; assay: Antiproliferative activity against human SGC-7901 cells; assay type: functional, cell-based
[13] = test system: MCF7; assay: Anticancer activity against human MCF7 cells assessed as reduction in cell viability incubated for 48 hrs by MTT assay; assay type: functional, cell-based; details: MCF7, 48 h
[14] = test system: HCT-116; assay: Anticancer activity against human HCT-116 cells assessed as reduction in cell viability incubated for 48 hrs by MTT assay; assay type: functional, cell-based; details: HCT-116, 48 h
[15] = test system: AGS; assay: Anticancer activity against human AGS cells; assay type: functional, cell-based
[16] = test system: A549; assay: Antiproliferative activity against human A549 cells assessed as reduction in cell growth incubated for 72 hrs by MTT assay; assay type: functional, cell-based; details: A549, 72 h
[17] = Antiproliferative activity against human WS1 cells assessed as reduction in cell viability incubated for 48 hrs by MTT assay; assay type: toxicity, cell-based
[18] = test system: A549; assay: Antiproliferative activity against human A549 cells assessed as reduction in cell viability incubated for 48 hrs by MTT assay; assay type: toxicity, cell-based; details: A549, 48 h
[19] = test system: HCT-116; assay: Cytotoxicity against human HCT-116 cells assessed as reduction in cell growth incubated for 24 hrs by MTT assay; assay type: functional, cell-based; details: HCT-116, 24 h
[20] = test system: PC-3; assay: Antiproliferative activity against human PC-3 cells assessed as reduction in cell viability incubated for 72 hrs by MTT assay; assay type: functional, cell-based; details: PC-3, 72 h
[21] = test system: K562; assay: Antiproliferative activity against human K562 cells assessed as reduction in cell viability incubated for 72 hrs by MTT assay; assay type: functional, cell-based; details: K562, 72 h
[22] = test system: BT-474; assay: Antiproliferative activity against human BT-474 cells assessed as inhibition of cell growth measured after 72 hrs by MTT assay; assay type: functional, cell-based; details: BT-474, 72 h
[23] = test system: HepG2; assay: Antiproliferative activity against human HepG2 cells assessed as inhibition of cell growth measured after 72 hrs by MTT assay; assay type: functional, cell-based; details: HepG2, 72 h
[24] = test system: MCF7; assay: Antiproliferative activity against human MCF7 cells assessed as reduction in cell viability incubated for 24 hrs by SRB assay; assay type: functional, cell-based; details: MCF7, 24 h
[25] = test system: Detroit 562; assay: Antiproliferative activity against human Detroit 562 cells; assay type: functional, cell-based
[26] = test system: MCF7; assay: Cytotoxicity against human MCF7 cells assessed as reduction in cell viability incubated for 48 hrs by MTT assay; assay type: functional, cell-based; details: MCF7, 48 h
[27] = test system: SW-620; assay: Antiproliferative activity against human SW620 cells assessed as inhibition of cell growth measured after 72 hrs by MTT assay; assay type: functional, cell-based; details: SW-620, 72 h
[28] = test system: U-937; assay: Antiproliferative activity against human U-937 cells; assay type: functional, cell-based
[29] = test system: HL-60; assay: Antiproliferative activity against human HL-60 cells; assay type: functional, cell-based

IC50 [9]: 300 nM
Structure (SMILES): Cc1cc(=O)oc2cc(-n3cc(-c4cccc(-c5cn(-c6ccc7c(C)cc(=O)oc7c6)nn5)c4)nn3)ccc12

IC50 [15]: 2630 nM
Structure (SMILES): O=c1cc(-c2ccccc2)c2ccc(OCc3nncn3-c3ccc(Cl)cc3)cc2o1

IC50 [20]: 1400 nM
IC50 [21]: 900 nM
Structure (SMILES): CC(C)(C)c1ccc(-c2cn(Cc3cc4c(o3)-c3ccccc3C(=O)C4=O)nn2)cc1

IC50 [20]: 1400 nM
IC50 [21]: 1300 nM
Structure (SMILES): O=C1C(=O)c2cc(Cn3cc(-c4ccccc4)nn3)oc2-c2ccccc21

IC50 [22]: 590 nM
Structure (SMILES): COc1ccc(Cn2cc(Cn3c(=O)c(-c4nc5ccccc5[nH]4)cc4ccccc43)nn2)c(OC)c1OC

IC50 [23]: 2300 nM
Structure (SMILES): Cc1ccc(/N=N/c2sc(N/N=C/c3cn(-c4ccccc4)nc3-c3nnn(-c4ccc(Br)cc4)c3C)nc2C)cc1

IC50 [27]: 250 nM
Structure (SMILES): c1ccc(-n2cc(-c3nc4ccc(C5=NCCN5)cc4s3)nn2)cc1

IC50 [28]: 2650 nM
IC50 [29]: 2720 nM
Structure (SMILES): Nc1ccc(-c2nnc(Sc3nc4ccccc4n4c(Nc5ccccc5)nnc34)o2)cc1

The remaining lines, values behind:

Structure (SMILES): CC(C)[C@@H]1CC[C@@H](C)C[C@@H]1On1cc(CN2C(=O)C(=O)c3ccccc32)nn1
IC50 [1]: 1790 nM
IC50 [2]: 1340 nM

Structure (SMILES): C=C(C)[C@@H]1CC[C@]2(COC(=O)c3cn(Cc4ccc(F)cc4)nn3)CC[C@]3(C)[C@H](CC[C@@H]4[C@@]5(C)CC[C@H](OC(=O)c6cnnn6Cc6ccc(F)cc6)C(C)(C)[C@@H]5CC[C@]43C)[C@@H]12
IC50 [3]: 80 nM
IC50 [4]: 50 nM
IC50 [5]: 90 nM

Structure (SMILES): CC(=O)O[C@@H]1O[C@H](Cn2cc(COc3cccc4cccnc34)nn2)[C@@H](OC(C)=O)[C@H](OC(C)=O)[C@H]1OC(C)=O
IC50 [6]: 22300 nM

Structure (SMILES): CC(C)CCC1=C(OCc2cn(-c3cccc(Cl)c3)nn2)C(=O)c2ccccc2C1=O
IC50 [7]: 9810 nM
IC50 [8]: 210000 nM

Structure (SMILES): CC(=O)O[C@@H]1[C@H](OC(C)=O)[C@H](OC(C)=O)CO[C@H]1n1cc(COC(=O)[C@]2(C)CCC[C@@]3(C)[C@@H]4CC[C@@]5(C)C[C@]4(CC[C@@H]32)CC5=O)nn1
IC50 [10]: 1700 nM

Structure (SMILES): COc1cc(/C=C/C(=O)CC(=O)/C=C/c2ccc(O)c(OC)c2)ccc1O [CURCUMIN]
IC50 [11]: 10500 nM

Structure (SMILES): CC1(C)CC[C@]23CC[C@]4(C)[C@H](CC[C@@H]5[C@@]6(C)CC[C@H](O)C(C)(C)[C@@H]6CC[C@]54C)[C@H]2[C@H]1OC3 [ALLOBETULIN]
IC50 [12]: 52200 nM

Structure (SMILES): CN(C)c1ccc(/C=N/c2nnc(S[C@@H]3O[C@H](CO)[C@@H](O)[C@H](O)[C@H]3O)s2)cc1
IC50 [13]: 17300 nM
IC50 [14]: 12100 nM

Structure (SMILES): COc1ccc(/C=C\c2cc(OC)c(OC)c(OC)c2)cc1O [COMBRETASTATIN A4]
IC50 [16]: 40 nM

Structure (SMILES): Cc1ccc(-n2ncc(CN3C(=O)C(F)(F)c4cc(Br)ccc43)n2)cc1Nc1nccc(-c2cccnc2)n1
IC50 at 48 h [17]: 18600 nM
IC50 [18]: 7300 nM

Structure (SMILES): C=C(C)[C@@H]1CC[C@]2(CO)CC[C@]3(C)[C@H](CC[C@@H]4[C@@]5(C)Cc6nn(C(C)=O)nc6C(C)(C)[C@@H]5CC[C@]43C)[C@@H]12
IC50 [19]: 5670 nM

Structure (SMILES): CN(C)c1ccc(/C=N/c2nnc(S[C@@H]3O[C@H](CO)[C@H](O)[C@H](O)[C@H]3O)s2)cc1
IC50 [13]: 21700 nM
IC50 [14]: 14400 nM

Structure (SMILES): CC(=O)OC[C@H]1OC(n2cc(COc3cccc4cccnc34)nn2)[C@@H](OC(C)=O)[C@H](OC(C)=O)[C@H]1OC(C)=O (stereo partly drawn)
IC50 [24]: 4120 nM

Structure (SMILES): COc1cc(C(=O)/C=C/c2ccccc2)cc(OC)c1OC
IC50 [25]: 3070 nM

Structure (SMILES): Cc1nccc2c1[nH]c1cc(OCc3cn(-c4cc(=O)oc5ccccc45)nn3)ccc12
IC50 [26]: 6900 nM

Source: ChEMBL document CHEMBL5608172, “Structural modification strategies of triazoles in anticancer drug development” (Eur J Med Chem, 2024)
